Data published in patent US6572880B2, “Methods and transdermal compositions for pain relief” (priority 1996, dated 2003).
Entries after “also recorded” stand apart in the source; their conditions may differ. Counter-ions that a name gives are not always drawn.

How the values were obtained:
[1] = in vivo
Method: A dosage of 40 mg per day was self-administered by a patient by application to the skin, for a period of at least 1 hour.
Sertraline (Zoloft) gel was prepared, according to the procedures of example 9. A dosage of 100 mg per day was self-administered by a patient by application to the skin, for a period of at least 1 hour.
A dosage of 20 mg per day was self-administered by a patient by application to the skin, for a period of at least 1 hour.
Carbamazepine (Tegretol) gel was prepared, according to the procedures of example 4. A dosage of 400 mg per day was self-administered by a patient by application to the skin, for a period of at least 1 hour.
(§1) Carbamazepine (Tegretol) gel was prepared, according to the procedures of example 4. A dosage of 200 mg per day was self-administered by a patient by application to the skin, for a period of at least 1 hour.
Sertraline (Zoloft) gel was prepared, according to the procedures of example 9. A dosage of 50 mg per day was self-administered by a patient by application to the skin, for a period of at least 1 hour.
as §1
A dosage of 100 mg per day was selfadministered by a patient by application to the skin, for a period of at least 1 hour.
A dosage of 80-160 mg per day was self administered by a person by application to the skin, for a period of at least 1 hour. […] The dosage was then increased to 160 mg per day and administered by the same method.
A dosage of 80-160 mg/day was self administered by a person by application to the skin, for a period of at least 1 hour. […] The dosage was then increased to 160 mg per day and administered by the same method.
A dosage of 500-1000 mg was self administered by two male patients. Administration was by application to the skin, for a period of at least one hour.

[2] = cited from earlier work
[3] = patient-reported pain relief after transdermal application to site of pain; type: in vivo, human; details: for overall assessment of pain relief when administered transdermally: conclusion from the patient results
Description: Compositions according the examples 45 through 47, 53, 55 were transdermally applied to numerous patients, for the purpose of treating pain including as described in other examples herein, with the results summarized in Table I below.

[4] = blood serum; cited from earlier work
[5] = skin irritation and side effects reported on transdermal administration; type: in vivo, human; details: for overall assessment of side effects when administered transdermally: conclusion from the patient results
Method: Preferably, a gel preparation is applied to the skin at the site or sites of pain. Patients can be evaluated by means of a structured evaluation form, e.g., completed at a frequency of at least one time per week. Evaluation of patients are for the present symptoms as well as any side effects from currently administered medications. This makes it possible to note changes on an ongoing basis.
Patients in the examples above were evaluated by means of a structured evaluation form depicted in FIG. 1, which was completed at a frequency of at least one time per week for each patient receiving transdermal medication according to the present invention. The patients were evaluated both for all present psychiatric symptoms as well as any side effects from currently-administered medications.

[6] = summary of Table I, best result per patient

| SMILES | transdermal absorption as judged from blood level [1] | solubility in water [2] | overall assessment of pain relief when administered transdermally [3] | overall assessment of side effects when administered transdermally [5] | typical reference levels [4] [ng/mL] | also measured |
| --- | --- | --- | --- | --- | --- | --- |
| CC(NC(C)(C)C)C(=O)c1cccc(Cl)c1 (centres unmarked) [Buproprion] | poor or equivocal absorptions and results | highly soluble | – | – | – | – |
| NC(=O)N1c2ccccc2C=Cc2ccccc21 [Carbamazepine] | good absorption | practically insoluble | positive effects | appears to cause a rash in at least some patients | – | typical therapeutic levels / therapeutic reference range [4]: 4 to 10 µg/mL; solubility in alcohol and in acetone [2]: soluble |
| CNCCC(Oc1ccc(C(F)(F)F)cc1)c1ccccc1 (centres unmarked) [Fluoxetine hydrochloride] | – | – | – | – | 50 to 480 | – |
| NCC1(CC(=O)O)CCCCC1 [Gabapentin] | – | – | – | free of side effects | – | – |
| COc1ccccc1OCC(O)CO (centres unmarked) [Guaifenesin] | – | – | benefit as an adjunctive treatment, of painful spasticity | – | – | – |
| Fc1ccc([C@@H]2CCNC[C@H]2COc2ccc3c(c2)OCO3)cc1 [Paroxetine hydrochloride] | – | – | – | – | 49 ± 26 | – |
| CN[C@H]1CC[C@@H](c2ccc(Cl)c(Cl)c2)c2ccccc21 [Sertraline hydrochloride] | do not appear to be absorbed well or reliably | slightly soluble | – | – | 30 to 200 | solubility in ethanol [2]: sparingly soluble; solubility in isopropyl alcohol [2]: slightly soluble |
| CCCC(CCC)C(=O)O [Valproic acid] | do not appear to be absorbed well or reliably | – | – | – | – | typical therapeutic levels / therapeutic reference range [4]: 50 to 150 µg/mL; skin irritation ([5]; application to the skin): appears to cause skin irritation in some patients |
| CN(C)CCC=C1c2ccccc2CCc2ccccc21 [amitriptyline] | – | – | limited pain relief | – | – | – |
| CN(C)CCC=C1c2ccccc2COc2ccccc21 [doxepin] | – | – | effective pain relief medication | substantially free of side effects | – | overall assessment of pain relief when administered transdermally ([3]; listed as Doxepin): about three times the positive response rate; also recorded: substantially more effective than amitriptyline; percent reported pain relief: Major [3, 6]: 23.1%; percent reported pain relief: Mild [3, 6]: 7.7%; percent reported pain relief: Mild-moderate [3, 6]: 7.7%; percent reported pain relief: Total [3, 6]: 7.7%; percent reported pain relief: moderate [3, 6]: 53.8% |
